Source: paper PMC10037152 (Plant Biotechnology Journal, 2023)

Experiments:
[1] = target: 3CL^pro of SARS-CoV-2 (Severe acute respiratory syndrome coronavirus 2, UniProt P0DTD1); test: Inhibition activity against 3CLpro by fluorescence resonance energy transfer; format: biochemical; settings: read-out: IC50 against 3CL^pro; n = 3
[2] = target: PL^pro of SARS-CoV-2 (Severe acute respiratory syndrome coronavirus 2, UniProt P0DTD1); test: Inhibition activity against PLpro by fluorescence resonance energy transfer; format: biochemical; settings: read-out: IC50 against PL^pro; n = 3

CC1(C)CC[C@]2(C(=O)O)CC[C@]3(C)C(=CC[C@@H]4[C@@]5(C)CC[C@H](O[C@@H]6O[C@H](CO)[C@@H](O)[C@H](O)[C@H]6O)C(C)(C)C5CC[C@]43C)[C@H]2C1 (some centres unmarked) [Compound 34, oleanolic acid‐3‐O‐glucoside]
IC50 [1]: 5.95 µM
IC50 [2]: 7.57 µM
